Drawing on article PMC11650360 (Archiv Der Pharmazie, 2024), this text covers Ki for twelve compounds.

The target of one assay is VchCAα (Vibrio cholerae, UniProt Q9KMP6). The experiment in a line: stopped-flow CO2 hydrase assay. Type of assay: biochemical.
Another assay addresses VchCAβ (Vibrio cholerae, UniProt Q9KUD6). Put plainly: biochemical.

Each structure is given as a SMILES string.

Broadly, the Ki is the dissociation constant of the complex between target and ligand, obtained from inhibition or displacement. Read a high Ki as a looser hold on the target.

Chain of VchCAα (Q9KMP6 21-239): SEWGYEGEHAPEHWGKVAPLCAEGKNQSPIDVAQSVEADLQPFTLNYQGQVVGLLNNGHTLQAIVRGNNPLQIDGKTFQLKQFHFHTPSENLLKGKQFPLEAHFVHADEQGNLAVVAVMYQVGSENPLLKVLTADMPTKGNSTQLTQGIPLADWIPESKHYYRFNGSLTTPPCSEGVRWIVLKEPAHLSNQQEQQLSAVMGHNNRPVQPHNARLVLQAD
Chain of VchCAβ (Q9KUD6 1-222): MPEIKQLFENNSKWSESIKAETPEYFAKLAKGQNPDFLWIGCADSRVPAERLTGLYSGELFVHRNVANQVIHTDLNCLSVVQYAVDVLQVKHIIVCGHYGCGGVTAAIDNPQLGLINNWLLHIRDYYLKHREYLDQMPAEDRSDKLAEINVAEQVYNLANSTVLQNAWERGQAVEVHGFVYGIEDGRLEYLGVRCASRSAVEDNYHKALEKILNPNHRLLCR

For `NS(=O)(=O)CCCn1cc(COc2ccccc2)nn1` [compound 1, 1], the Ki was 29.1 µM at VchCAα and 4.16 µM at VchCAβ.

In the case of `COc1ccc(OCc2cn(CCCS(N)(=O)=O)nn2)cc1` [compound 3, 3], the Ki worked out at 16.5 µM at VchCAα and 2.96 µM at VchCAβ.

Regarding `NS(=O)(=O)CCCn1cc(CNC(=O)Nc2ccc(F)cc2)nn1` [compound 5, 5], the Ki is 13.4 µM on VchCAα and 0.93 µM at VchCAβ.

Regarding `Cc1ccc(NC(=O)NCc2cn(CCCS(N)(=O)=O)nn2)cc1` [compound 6, 6], the Ki at VchCAβ came out at 0.82 µM.

`NS(=O)(=O)CCCn1cc(CNC(=O)Nc2ccc(C(F)(F)F)cc2)nn1` [compound 7, 7]: the Ki on VchCAα was determined as 11.2 µM; at VchCAβ, 0.67 µM.

For the compound `COc1cccc(NC(=O)NCc2cn(CCCS(N)(=O)=O)nn2)c1` [compound 9, 9], the Ki was 17.5 µM on VchCAα and 1.72 µM on VchCAβ.

For `NS(=O)(=O)CCCCn1cc(COc2ccccc2)nn1` [compound 14, 14], the Ki on VchCAα was 34.4 µM; on VchCAβ, 6.91 µM.

In the case of `COc1ccc(OCc2cn(CCCCS(N)(=O)=O)nn2)cc1` [compound 16, 16], the Ki on VchCAα came to 28.7 µM; on VchCAβ, 6.13 µM.

Take `NS(=O)(=O)CCCCn1cc(CNC(=O)Nc2ccc(F)cc2)nn1` [compound 18, 18]: the results for the Ki on VchCAα and on VchCAβ were 16.9 µM and 3.41 µM, respectively.

With `Cc1ccc(NC(=O)NCc2cn(CCCCS(N)(=O)=O)nn2)cc1` [compound 19, 19], the Ki on VchCAα was 18.3 µM; at VchCAβ, 2.86 µM.

As to `NS(=O)(=O)CCCCn1cc(CNC(=O)Nc2ccc(C(F)(F)F)cc2)nn1` [compound 20, 20], the Ki on VchCAα is 16.8 µM; on VchCAβ, 3 µM.

Consider `COc1cccc(NC(=O)NCc2cn(CCCCS(N)(=O)=O)nn2)c1` [compound 22, 22], for which the Ki at VchCAα turned out to be 14 µM; on VchCAβ, 1.97 µM.
